Experimental data reported in the supplement of paper PMC5662764.
± gives the standard deviation of the averaged measurements.

Columns and labels:
Assay in all cases: normalised growth rate inhibition (GR value) relative to DMSO control (GR (1 = untreated growth, 0 = cytostasis, <0 = cytotoxic)); higher = less growth inhibition
Conditions in all cases: 72 h
BT20 = test system: BT20
Description: (§1)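 Breast cancer cell lines (BT-20, Hs 578T, MCF 10A, MCF7, MDA-MB-231, SK-BR-3) were plated in 384-well plates and treated 24 h later with drugs at six concentrations (0.04-10 µM). Viable cells were counted by Hoechst/dead-cell-stain imaging at 0 and 72 h. Counts were normalised to DMSO controls on the same plate to give the relative cell count and the growth-rate inhibition (GR) value; technical plate triplicates were averaged for each biological replicate.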

MCF10A = test system: MCF10A
Description: as §1

MDAMB231 = test system: MDAMB231
Description: as §1

MCF7 = test system: MCF7
Description: as §1

SKBR3 = test system: SKBR3
Description: as §1

HS578T = test system: HS578T
Description: as §1

| SMILES | normalised growth rate inhibition (BT20; 0.04 µM) | normalised growth rate inhibition (BT20; 0.12 µM) | normalised growth rate inhibition (BT20; 0.37 µM) | normalised growth rate inhibition (BT20; 1.11 µM) | normalised growth rate inhibition (BT20; 3.33 µM) | normalised growth rate inhibition (BT20; 10 µM) | normalised growth rate inhibition (MCF10A; 0.04 µM) | normalised growth rate inhibition (MCF10A; 0.12 µM) | normalised growth rate inhibition (MCF10A; 0.37 µM) | normalised growth rate inhibition (MCF10A; 1.11 µM) | normalised growth rate inhibition (MCF10A; 3.33 µM) | normalised growth rate inhibition (MCF10A; 10 µM) | normalised growth rate inhibition (MDAMB231; 0.04 µM) | normalised growth rate inhibition (MDAMB231; 0.12 µM) | normalised growth rate inhibition (MDAMB231; 0.37 µM) | normalised growth rate inhibition (MDAMB231; 1.11 µM) | normalised growth rate inhibition (MDAMB231; 3.33 µM) | normalised growth rate inhibition (MDAMB231; 10 µM) | normalised growth rate inhibition (MCF7; 0.04 µM) | normalised growth rate inhibition (MCF7; 0.12 µM) | normalised growth rate inhibition (MCF7; 0.37 µM) | normalised growth rate inhibition (MCF7; 1.11 µM) | normalised growth rate inhibition (MCF7; 3.33 µM) | normalised growth rate inhibition (MCF7; 10 µM) | normalised growth rate inhibition (SKBR3; 0.04 µM) | normalised growth rate inhibition (SKBR3; 0.12 µM) | normalised growth rate inhibition (SKBR3; 0.37 µM) | normalised growth rate inhibition (SKBR3; 1.11 µM) | normalised growth rate inhibition (SKBR3; 3.33 µM) | normalised growth rate inhibition (SKBR3; 10 µM) | normalised growth rate inhibition (HS578T; 0.04 µM) | normalised growth rate inhibition (HS578T; 0.12 µM) | normalised growth rate inhibition (HS578T; 0.37 µM) | normalised growth rate inhibition (HS578T; 1.11 µM) | normalised growth rate inhibition (HS578T; 3.33 µM) | normalised growth rate inhibition (HS578T; 10 µM) |
| --- | --- | --- | --- | --- | --- | --- | --- | --- | --- | --- | --- | --- | --- | --- | --- | --- | --- | --- | --- | --- | --- | --- | --- | --- | --- | --- | --- | --- | --- | --- | --- | --- | --- | --- | --- | --- |
| Nc1cc(C(F)(F)F)c(-c2cc(N3CCOCC3)nc(N3CCOCC3)n2)cn1 [buparlisib] | 1.01 ± 0.029 | 0.868 ± 0.1 | 0.501 ± 0.11 | 0.0131 ± 0.038 | -0.261 ± 0.11 | -0.346 ± 0.12 | 1 ± 0.012 | 0.956 ± 0.044 | 0.857 ± 0.11 | 0.487 ± 0.23 | 0.0221 ± 0.089 | -0.181 ± 0.12 | 1.05 ± 0.063 | 0.978 ± 0.027 | 0.844 ± 0.04 | 0.487 ± 0.062 | 0.0994 ± 0.052 | -0.255 ± 0.12 | 0.759 ± 0.25 | 0.475 ± 0.18 | 0.148 ± 0.069 | -0.113 ± 0.032 | -0.188 ± 0.0036 | -0.189 ± 0.021 | 0.917 ± 0.09 | 0.651 ± 0.1 | 0.145 ± 0.056 | -0.203 ± 0.16 | -0.281 ± 0.14 | -0.332 ± 0.13 | 0.955 ± 0.025 | 0.845 ± 0.028 | 0.679 ± 0.039 | 0.142 ± 0.16 | -0.17 ± 0.099 | -0.231 ± 0.091 |
| C=CC(=O)Nc1cc2c(Nc3ccc(F)c(Cl)c3)ncnc2cc1OCCCN1CCOCC1 [canertinib] | 0.896 ± 0.044 | 0.8804 ± 0.0073 | 0.831 ± 0.027 | 0.814 ± 0.045 | 0.71 ± 0.061 | -0.13 ± 0.097 | 0.702 ± 0.24 | 0.498 ± 0.26 | 0.313 ± 0.2 | 0.173 ± 0.1 | 0.105 ± 0.033 | -0.39 ± 0.22 | 1.04 ± 0.029 | 0.965 ± 0.015 | 0.909 ± 0.026 | 0.782 ± 0.034 | 0.572 ± 0.099 | -0.249 ± 0.077 | 0.9894 ± 0.0058 | 0.884 ± 0.035 | 0.801 ± 0.053 | 0.67 ± 0.062 | 0.505 ± 0.13 | -0.367 ± 0.092 | 0.148 ± 0.089 | 0.023 ± 0.12 | -0.0304 ± 0.15 | -0.0844 ± 0.15 | -0.124 ± 0.14 | -0.261 ± 0.12 | 1 ± 0.028 | 0.996 ± 0.028 | 0.969 ± 0.019 | 0.944 ± 0.011 | 0.851 ± 0.034 | -0.289 ± 0.13 |
| C[C@@H](Oc1cc(-c2cnn(C3CCNCC3)c2)cnc1N)c1c(Cl)ccc(F)c1Cl [crizotinib] | 0.805 ± 0.04 | 0.91 ± 0.024 | 0.823 ± 0.015 | 0.742 ± 0.03 | 0.391 ± 0.17 | -0.0468 ± 0.072 | 0.988 ± 0.021 | 0.964 ± 0.032 | 0.934 ± 0.022 | 0.906 ± 0.015 | 0.833 ± 0.028 | 0.094 ± 0.017 | 0.831 ± 0.13 | 0.885 ± 0.079 | 0.778 ± 0.096 | 0.509 ± 0.2 | 0.175 ± 0.12 | -0.0131 ± 0.13 | 0.762 ± 0.07 | 0.748 ± 0.078 | 0.618 ± 0.12 | 0.351 ± 0.17 | 0.0468 ± 0.047 | -0.174 ± 0.065 | 0.687 ± 0.14 | 0.808 ± 0.096 | 0.753 ± 0.15 | 0.629 ± 0.15 | 0.342 ± 0.14 | -0.181 ± 0.092 | 0.976 ± 0.034 | 0.965 ± 0.042 | 0.903 ± 0.014 | 0.781 ± 0.12 | 0.367 ± 0.2 | 0.0436 ± 0.099 |
| Cc1nc(Nc2ncc(C(=O)Nc3c(C)cccc3Cl)s2)cc(N2CCN(CCO)CC2)n1 [dasatinib] | 0.622 ± 0.27 | 0.364 ± 0.2 | 0.0964 ± 0.081 | 0.0125 ± 0.077 | -0.085 ± 0.094 | -0.163 ± 0.1 | 0.621 ± 0.24 | 0.391 ± 0.23 | 0.196 ± 0.14 | 0.0869 ± 0.091 | -0.0296 ± 0.08 | -0.138 ± 0.061 | 0.159 ± 0.29 | -0.107 ± 0.1 | -0.204 ± 0.032 | -0.233 ± 0.054 | -0.239 ± 0.061 | -0.259 ± 0.12 | 0.342 ± 0.32 | 0.0795 ± 0.2 | -0.0261 ± 0.17 | -0.0357 ± 0.15 | -0.0394 ± 0.16 | -0.0825 ± 0.16 | 0.998 ± 0.06 | 0.937 ± 0.08 | 0.942 ± 0.058 | 0.766 ± 0.064 | 0.398 ± 0.15 | -0.166 ± 0.22 | 0.394 ± 0.28 | 0.17 ± 0.22 | 0.0194 ± 0.17 | -0.0213 ± 0.16 | -0.0565 ± 0.17 | -0.109 ± 0.15 |
